The source of these data is patent US11583890B2, “Low temperature curing 1K basecoat and method to coat a substrate with the 1K basecoat” (BASF Coatings GmbH, priority 2017, dated 2023).

In general, logP refers to the decadic logarithm of the partition coefficient of the neutral form, usually between octanol and water. For orientation: pKa means the pH at which an ionisable group is half protonated.

The nature of the first data set: physchem. Type of data set: physicochemical. The note with it: pH 8. The text has this:
One of ordinary skill will recognize that log P is a guideline tool for assessing amine candidates, since actual migration to the clear coat layer or retention within the aqueous 1K basecoat layer will be dependent upon the nature of the solvent base of the clear coat and other factors including the influence of other additives commonly present in the composition of both layers.
In one aspect of the first embodiment, the secondary amine may be a dialkyl amine.
As for `CCCCNCCCC` [di-n-butyl amine], the logP is roughly 2.8. On the same count and under the same terms, the result for `CCCNCCC` [di-n-propyl amine] reads roughly 1.6; that for `CCNC(C)C` [ethyl isopropyl amine], 0.93.

The next data set in a line: physchem.
Conditions: not given
The source says: The availability of the base electron pair is influenced by the steric environment presented by the groups (R′, R″ and CH2OH) bonded to the N and any electronic influence of those same groups.
`CC(C)(N)CO` [AMP, 2-amino-2-methyl-1-propanol, reference compound] had a pKa of 9.8. With `CN(C)CCO` [DMEOA, N,N-dimethylethanolamine, reference compound], the pKa came to 9.2. Compound `CCCNCCC` [di-n-propyl amine] had a pKa of 10.9. Take `CCCN(CO)CCC` [methylol adduct of di-n-propyl amine]: the pKa is listed as 8.01. On the same count and under the same terms, the result for `CCN(CC)CO` [methylol adduct of diethylamine] reads 8.9; that for `CC(C)N(CO)C(C)C` [methylol adduct of diisopropylamine], 9.0; that for `OCN1CCCCC1` [methylol adduct of piperidine], 9.2. In the case of `OCN1CCCC1` [methylol adduct of pyrrolidine], the pKa is listed as 8.9. Regarding `C1CCNC1` [pyrrolidine], the pKa is 10.6.
